In patent publication US20260027068A1, “METHODS OF ADM[…]-KETAMINE” (Perception Neuroscience, Inc., priority 2022, published 2026):

Experiment: Respiratory rate (vital signs)
Conditions: 60 mg
Procedure: The Investigational Medicinal Product (IMP) R(−)-ketamine hydrochloride in sterile water for intravenous injection was investigated as an […] treatment of TRD. The International Union of Pure and Applied Chemistry (IUPAC) name is of the IMP is (2R)-2-(2-chlorophenyl)-2-(methylamino)cyclohexan-1-one. Subjects received the solution at either 30 mg or 60 mg dose, or a placebo. The IMP or placebo was administered on Day 1 as a single IV infusion via an electronic infusion pump over 40 minutes. The duration of study participation for each subject was up to 29 days including a screening period, a 3-day in-clinic visit, and 2 follow-up visits. 101 subjects were enrolled in approximately 20 study centers in the EU and the US.
Tympanic or temporal temperature, heart rate, blood pressure (SBP/DBP), respiratory rate, and SpO2 were assessed. Blood pressure and pulse measurements will be assessed with a completely automated device while the subject is supine or semi-supine. Manual techniques will be used only if an automated device is not available. Blood pressure and pulse measurements should be preceded by at least 5 minutes of rest for the subject in a quiet setting without distractions (e.g., television, cell phones). An abnormal blood pressure value at screening may be repeated once after 5 minutes of relaxation to determine the subject's eligibility. Blood pressure was recorded using the same arm and position (supine or semi-supine) throughout the study, where possible. Vital signs (to be taken before blood collection for laboratory tests) consisted of 1 pulse and 3 blood pressure measurements (3 consecutive blood pressure readings will be recorded at intervals of at least 1 minute). The average of the 3 blood pressure readings was recorded in the CRF. A pulse oximeter was used to measure peripheral capillary oxygen saturation (SpO2) continuously from pre-dose until 4-hours post-dose. A pulse oximeter was clipped onto the finger or foot of the subject, and light will be sent through the finger or foot and measured on the other side.
In these tables, baseline value is defined as the last non-missing value prior to study drug administration.

For `CN[C@@]1(c2ccccc2Cl)CCCCC1=O.Cl` [R(−)-ketamine, (2R)-2-(2-chlorophenyl)-2-(methylamino)cyclohexan-1-one], the “Respiratory Rate, Max” value (Day 1, 15 minutes) was 18 breaths/minute, the “Respiratory Rate, Mean” value (Day 1, 15 minutes) was 15.5 breaths/minute and the “Respiratory Rate, Median” value (Day 1, 15 minutes) was 15.0 breaths/minute. The “Respiratory Rate, Min” value (Day 1, 15 minutes) was 14 breaths/minute, the “Respiratory Rate, Max” value (Day 1, 40 minutes) was 23 breaths/minute and the “Respiratory Rate, Mean” value (Day 1, 40 minutes) was 15.9 breaths/minute. The “Respiratory Rate, Median” value (Day 1, 40 minutes) was 16.0 breaths/minute, the “Respiratory Rate, Min” value (Day 1, 40 minutes) was 12 breaths/minute and the “Respiratory Rate, Max” value (Day 1, 60 minutes) was 16 breaths/minute. For the same compound, the “Respiratory Rate, Mean” value (Day 1, 60 minutes) was 15.2 breaths/minute, the “Respiratory Rate, Median” value (Day 1, 60 minutes) was 16.0 breaths/minute and the “Respiratory Rate, Min” value (Day 1, 60 minutes) was 12 breaths/minute. The “Respiratory Rate, Max” value (Day 1, 2 hours) was 19 breaths/minute, the “Respiratory Rate, Mean” value (Day 1, 2 hours) was 15.5 breaths/minute and the “Respiratory Rate, Median” value (Day 1, 2 hours) was 16.0 breaths/minute. The “Respiratory Rate, Min” value (Day 1, 2 hours) was 11 breaths/minute, the “Respiratory Rate, Max” value (Day 1, 4 hours) was 20 breaths/minute and the “Respiratory Rate, Mean” value (Day 1, 4 hours) was 15.9 breaths/minute. The “Respiratory Rate, Median” value (Day 1, 4 hours) was 16.0 breaths/minute, the “Respiratory Rate, Min” value (Day 1, 4 hours) was 12 breaths/minute and the “Respiratory Rate, Max” value (Day 1, 6 hours) was 20 breaths/minute. The “Respiratory Rate, Mean” value (Day 1, 6 hours) was 15.7 breaths/minute, the “Respiratory Rate, Median” value (Day 1, 6 hours) was 16.0 breaths/minute and the “Respiratory Rate, Min” value (Day 1, 6 hours) was 12 breaths/minute. For the same compound, the “Respiratory Rate, Max” value (Day 2 - Discharge) was 20 breaths/minute, the “Respiratory Rate, Mean” value (Day 2 - Discharge) was 15.9 breaths/minute and the “Respiratory Rate, Median” value (Day 2 - Discharge) was 16.0 breaths/minute. The “Respiratory Rate, Min” value (Day 2 - Discharge) was 12 breaths/minute, the “Respiratory Rate, Max” value (Day 8) was 18 breaths/minute and the “Respiratory Rate, Mean” value (Day 8) was 15.7 breaths/minute. The “Respiratory Rate, Median” value (Day 8) was 16.0 breaths/minute, the “Respiratory Rate, Min” value (Day 8) was 12 breaths/minute and the “Respiratory Rate, Max” value (Day 15) was 20 breaths/minute. For the same compound, the “Respiratory Rate, Mean” value (Day 15) was 15.8 breaths/minute, the “Respiratory Rate, Median” value (Day 15) was 16.0 breaths/minute and the “Respiratory Rate, Min” value (Day 15) was 12 breaths/minute. For the same compound, the “Respiratory Rate, Change from Baseline, Max” value (shortened to “Respiratory Rate, Change … Max”) (to Day 1, 15 minutes) was 2 breaths/minute, the “Respiratory Rate, Change from Baseline, Mean” value (to Day 1, 15 minutes) was −0.6 breaths/minute and the “Respiratory Rate, Change from Baseline, Median” value (to Day 1, 15 minutes) was −1.0 breaths/minute. The “Respiratory Rate, Change from Baseline, Min” value (from here on “Respiratory Rate, Change … Min”) (to Day 1, 15 minutes) was −4 breaths/minute, the “Respiratory Rate, Change … Max” value (to Day 1, 40 minutes) was 4 breaths/minute and the “Respiratory Rate, Change from Baseline, Mean” value (to Day 1, 40 minutes) was −0.0 breaths/minute. The “Respiratory Rate, Change from Baseline, Median” value (to Day 1, 40 minutes) was 0.0 breaths/minute, the “Respiratory Rate, Change … Min” value (to Day 1, 40 minutes) was −4 breaths/minute and the “Respiratory Rate, Change … Max” value (to Day 1, 60 minutes) was 1 breaths/minute. For the same compound, the “Respiratory Rate, Change from Baseline, Mean” value (to Day 1, 60 minutes) was −0.8 breaths/minute, the “Respiratory Rate, Change from Baseline, Median” value (to Day 1, 60 minutes) was −1.0 breaths/minute and the “Respiratory Rate, Change … Min” value (to Day 1, 60 minutes) was −4 breaths/minute. The “Respiratory Rate, Change … Max” value (to Day 1, 2 hours) was 2 breaths/minute, the “Respiratory Rate, Change from Baseline, Mean” value (to Day 1, 2 hours) was −0.5 breaths/minute and the “Respiratory Rate, Change from Baseline, Median” value (to Day 1, 2 hours) was 0.0 breaths/minute. For the same compound, the “Respiratory Rate, Change … Min” value (to Day 1, 2 hours) was −4 breaths/minute, the “Respiratory Rate, Change … Max” value (to Day 1, 4 hours) was 3 breaths/minute and the “Respiratory Rate, Change from Baseline, Mean” value (to Day 1, 4 hours) was −0.1 breaths/minute. The “Respiratory Rate, Change from Baseline, Median” value (to Day 1, 4 hours) was 0.0 breaths/minute, the “Respiratory Rate, Change … Min” value (to Day 1, 4 hours) was −4 breaths/minute and the “Respiratory Rate, Change … Max” value (to Day 1, 6 hours) was 6 breaths/minute. For the same compound, the “Respiratory Rate, Change from Baseline, Mean” value (to Day 1, 6 hours) was −0.2 breaths/minute, the “Respiratory Rate, Change from Baseline, Median” value (to Day 1, 6 hours) was 0.0 breaths/minute and the “Respiratory Rate, Change … Min” value (to Day 1, 6 hours) was −8 breaths/minute. The “Respiratory Rate, Change … Max” value (to Day 2 - Discharge) was 4 breaths/minute, the “Respiratory Rate, Change from Baseline, Mean” value (to Day 2 - Discharge) was −0.0 breaths/minute and the “Respiratory Rate, Change from Baseline, Median” value (to Day 2 - Discharge) was 0.0 breaths/minute. For the same compound, the “Respiratory Rate, Change … Min” value (to Day 2 - Discharge) was −4 breaths/minute, the “Respiratory Rate, Change … Max” value (to Day 8) was 4 breaths/minute and the “Respiratory Rate, Change from Baseline, Mean” value (to Day 8) was −0.2 breaths/minute. The “Respiratory Rate, Change from Baseline, Median” value (to Day 8) was 0.0 breaths/minute, the “Respiratory Rate, Change … Min” value (to Day 8) was −6 breaths/minute and the “Respiratory Rate, Change … Max” value (to Day 15) was 6 breaths/minute. For the same compound, the “Respiratory Rate, Change from Baseline, Mean” value (to Day 15) was −0.1 breaths/minute, the “Respiratory Rate, Change from Baseline, Median” value (to Day 15) was 0.0 breaths/minute and the “Respiratory Rate, Change … Min” value (to Day 15) was −3 breaths/minute.
